We go through 12 molecules from patent US10758534B2 (Vertex Pharmaceuticals Incorporated, priority 2014, dated 2020).

The EC30 is the concentration at which the effect reaches the 30% level.

T1 sequence (P13569 with tags, fused parts or gaps DEL508-508): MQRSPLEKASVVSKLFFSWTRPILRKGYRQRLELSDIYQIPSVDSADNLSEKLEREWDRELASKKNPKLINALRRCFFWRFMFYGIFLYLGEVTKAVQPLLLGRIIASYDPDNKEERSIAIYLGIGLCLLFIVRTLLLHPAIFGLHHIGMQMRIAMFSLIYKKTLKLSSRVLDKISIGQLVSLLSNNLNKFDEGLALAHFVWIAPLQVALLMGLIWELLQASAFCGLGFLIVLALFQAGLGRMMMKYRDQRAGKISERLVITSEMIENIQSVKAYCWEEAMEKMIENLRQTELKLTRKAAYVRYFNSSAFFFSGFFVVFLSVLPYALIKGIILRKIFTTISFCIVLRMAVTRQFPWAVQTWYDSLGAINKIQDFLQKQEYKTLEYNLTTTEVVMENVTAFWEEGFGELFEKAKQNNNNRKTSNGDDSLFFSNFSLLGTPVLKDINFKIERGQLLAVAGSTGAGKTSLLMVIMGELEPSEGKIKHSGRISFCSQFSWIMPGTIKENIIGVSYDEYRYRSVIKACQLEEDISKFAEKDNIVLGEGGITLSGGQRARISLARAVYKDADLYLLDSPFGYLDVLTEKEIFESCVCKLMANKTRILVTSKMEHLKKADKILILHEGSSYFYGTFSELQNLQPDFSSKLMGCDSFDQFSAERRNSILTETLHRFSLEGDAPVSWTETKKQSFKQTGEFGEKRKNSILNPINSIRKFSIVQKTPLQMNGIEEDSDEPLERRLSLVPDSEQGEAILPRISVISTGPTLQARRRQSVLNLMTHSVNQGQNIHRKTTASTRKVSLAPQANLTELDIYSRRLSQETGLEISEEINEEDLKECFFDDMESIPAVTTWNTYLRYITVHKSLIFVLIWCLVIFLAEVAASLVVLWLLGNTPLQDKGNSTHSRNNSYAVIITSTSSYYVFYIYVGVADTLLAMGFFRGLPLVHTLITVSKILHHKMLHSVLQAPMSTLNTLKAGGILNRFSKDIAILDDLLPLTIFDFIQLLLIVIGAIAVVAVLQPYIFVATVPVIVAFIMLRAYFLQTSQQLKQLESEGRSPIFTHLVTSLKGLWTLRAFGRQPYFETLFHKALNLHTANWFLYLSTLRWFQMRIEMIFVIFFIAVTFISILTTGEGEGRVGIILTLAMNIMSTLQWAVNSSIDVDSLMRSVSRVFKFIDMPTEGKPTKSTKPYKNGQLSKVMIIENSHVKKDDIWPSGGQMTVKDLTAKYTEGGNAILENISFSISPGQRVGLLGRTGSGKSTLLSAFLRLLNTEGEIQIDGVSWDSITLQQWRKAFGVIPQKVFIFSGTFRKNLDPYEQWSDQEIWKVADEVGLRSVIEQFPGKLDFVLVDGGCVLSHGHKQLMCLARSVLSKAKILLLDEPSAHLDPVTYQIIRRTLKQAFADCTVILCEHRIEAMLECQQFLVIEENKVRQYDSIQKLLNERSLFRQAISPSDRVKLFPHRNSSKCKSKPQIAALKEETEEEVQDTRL

The first assay addresses T1, F508del (Homo sapiens, UniProt P13569, DEL508-508).
T1 construct: expressed in transfected cells
Briefly: Protocol 2: FRET membrane potential optical assay (VIPR), identification of correction compounds. The note with it: F508del CFTR modulator activity; compounds of Table 1; read-out: EC30. Format: cell-based. Summed up: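 NIH3T3 mouse fibroblasts stably expressing F508del were treated with test compound for 16 hrs at 37° C. in serum-free medium; 27° C. incubation served as positive control. F508del was activated with 10 μM forskolin plus 20 μM genistein in Cl^−-free medium, and Cl^− efflux-driven depolarization was read by DiSBAC2(3)/CC2-DMPE FRET.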
Consider `CCCN(CCOC)c1cccc(S(=O)(=O)NC(=O)c2cccnc2N2CC(C)CC2(C)C)n1` (stereo not drawn) [Compound 2343, N—[[6-[2-methoxyethyl(propyl)amino]-2-pyridyl]sulfonyl]-2-(2,2,4-trimethylpyrrolidin-1-yl)pyridine-3-carboxamide], for which the EC30 was < 3000 nM.

The assay is the same for the next values; noted with them: Table 3; compounds of Table 1 as modulators of CFTR activity; protocol not stated.
Turning to `Cc1cc(C)c(Oc2nc(-c3cccc(CN4CCOCC4)c3)ccc2C(=O)NS(=O)(=O)c2cccc(N)n2)c(C)c1` [Compound 465, N-[(6-amino-2-pyridyl)sulfonyl]-6-[3-(morpholinomethyl)phenyl]-2-(2,4,6-trimethylphenoxy)pyridine-3-carboxamide], the EC30 entry was “++ (“++” means between 3 uM and 10 uM)”.

As for `Cc1cc(C)c(Oc2nc(C(C)(C)C)ccc2C(=O)NS(=O)(=O)c2ccccn2)c(C)c1` [Compound 222, 6-tert-butyl-N-(2-pyridylsulfonyl)-2-(2,4,6-trimethylphenoxy)pyridine-3-carboxamide], the EC30 entry is given as “+++ (“+++” means <3 uM)”. With `Cc1cccc(-c2nc(C(C)(C)C)ccc2C(=O)NS(=O)(=O)c2cccc(N)n2)c1` [Compound 31, N-[(6-amino-2-pyridyl)sulfonyl]-6-tert-butyl-2-(m-tolyl)pyridine-3-carboxamide], the 30% effect concentration (EC30) entry was “++ (“++” means between 3 uM and 10 uM)”. As to `COc1cccc(S(=O)(=O)NC(=O)c2ccc(-c3cc(F)cc(OCC(C)C)c3)nc2N2CC(C)CC2(C)C)n1` (stereo not drawn) [Compound 795], the EC30 result is reported as “+++ (“+++” means <3 uM)”.

For `C[C@@H]1CC[C@H](C)N1c1nc(-c2cc(F)cc(OCC(C)(C)C)c2)ccc1C(=O)NS(=O)(=O)c1ccc[nH]c1=O` [Compound 572, 6-[3-(2,2-dimethylpropoxy)-5-fluoro-phenyl]-2-[(2S,5R)-2,5-dimethylpyrrolidin-1-yl]-N-[(2-oxo-1H-pyridin-3-yl)sulfonyl]pyridine-3-carboxamide], the EC30 result is listed as “+++ (“+++” means <3 uM)”. In the case of `Cc1cc(C)c(Oc2nc(NC(C)C)ccc2C(=O)NS(=O)(=O)c2cccc(N)n2)c(C)c1` [Compound 650, N-[(6-amino-2-pyridyl)sulfonyl]-6-(isopropylamino)-2-(2,4,6-trimethylphenoxy)pyridine-3-carboxamide], the EC30 result was “++ (“++” means between 3 uM and 10 uM)”. Still for that read-out and setting: for `Cc1cc(C)c(Oc2nc(C(C)(C)C)ccc2C(=O)NS(=O)(=O)c2nc(N)cs2)c(C)c1` [Compound 265, N-(4-aminothiazol-2-yl)sulfonyl-6-tert-butyl-2-(2,4,6-trimethylphenoxy)pyridine-3-carboxamide] the value was “+++ (“+++” means <3 uM)”; for `CC(C)(C)c1ccc(C(=O)NS(=O)(=O)c2cccc(N)n2)c(C2=CCCC2)n1` [Compound 529, N-[(6-amino-2-pyridyl)sulfonyl]-6-tert-butyl-2-(cyclopenten-1-yl)pyridine-3-carboxamide], “++ (“++” means between 3 uM and 10 uM)”.

As for `CCCOc1cc(-c2ccc(C(=O)NS(=O)(=O)c3ccc[nH]c3=O)c(Oc3c(C)cc(C)cc3C)n2)ccc1Cl` [Compound 72, 6-(4-chloro-3-propoxy-phenyl)-N-[(2-oxo-1H-pyridin-3-yl)sulfonyl]-2-(2,4,6-trimethylphenoxy)pyridine-3-carboxamide], the EC30 entry was “++ (“++” means between 3 uM and 10 uM)”. On to `CC1CCN(c2nc(-c3cc(F)cc(OC(C)C)c3)ccc2C(=O)NS(=O)(=O)c2ccc[nH]c2=O)CC1` [Compound 737, 6-(3-fluoro-5-isopropoxy-phenyl)-2-(4-methyl-1-piperidyl)-N-[(2-oxo-1H-pyridin-3-yl)sulfonyl]pyridine-3-carboxamide], for which the EC30 entry is reported as “+++ (“+++” means <3 uM)”. `CC(C)COc1cc(F)cc(-c2ccc(C(=O)NS(=O)(=O)c3cccc(N)n3)c(N3CCCC3(C)Cc3ccccc3)n2)c1` (stereo not drawn) [Compound 663, N-[(6-amino-2-pyridyl)sulfonyl]-2-(2-benzyl-2-methyl-pyrrolidin-1-yl)-6-(3-fluoro-5-isobutoxy-phenyl)pyridine-3-carboxamide]: the EC30 entry is given as “+++ (“+++” means <3 uM)”.
